Reference: patent publication US9790169B2, “IDO inhibitors” (BRISTOL-MYERS SQUIBB COMPANY, priority 2015, dated 2017)

Biological target: human IDO1 (Homo sapiens, UniProt P14902)
Experiment: Assessment of human IDO-1 inhibitory activity in Hela cells (Interferon-gamma stimulated HeLa cells, Ehrlich reagent, absorbance 490 nm)
Type: cell-based
Set-up: endogenous in cells; host or cells: HeLa cells stimulated with interferon-gamma
Settings: Hela Human IDO-1 cellular assay
Summary of the method: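 HeLa cells pre-incubated with compound 1 h at 37 °C, then stimulated with human IFN-γ (10 ng/ml final) or murine IFN-γ (5 ng/ml final) for 18 h. Kynurenine read with Ehrlich reagent at 490 nm after TCA (3%) and 50 °C treatment; IC50 normalized to unstimulated (100%) and IFN-γ-only (0%) wells.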

Chain of human IDO1 (P14902 whole entry): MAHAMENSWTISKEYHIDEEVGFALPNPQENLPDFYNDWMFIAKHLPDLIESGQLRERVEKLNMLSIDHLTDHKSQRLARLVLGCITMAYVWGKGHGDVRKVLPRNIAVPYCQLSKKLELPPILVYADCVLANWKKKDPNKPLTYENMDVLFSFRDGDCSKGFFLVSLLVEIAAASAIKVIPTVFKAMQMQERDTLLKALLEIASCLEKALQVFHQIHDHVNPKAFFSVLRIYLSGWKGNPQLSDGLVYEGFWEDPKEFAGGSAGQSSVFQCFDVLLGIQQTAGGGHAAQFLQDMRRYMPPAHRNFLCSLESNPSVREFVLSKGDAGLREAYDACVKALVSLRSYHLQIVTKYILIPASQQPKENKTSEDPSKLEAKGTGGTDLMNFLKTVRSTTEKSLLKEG

Compound | IC50 [nM]
CCOc1ncc(Nc2cc(C(CC)CC(=O)O)ccc2N(CCOC)C2CCOCC2)cn1 (single isomer, unassigned) [Example 1260, 3-(3-((2-ethoxypyrimidin-5-yl)amino)-4-((2-methoxyethyl)(tetrahydro-2H-pyran-4-yl)amino)phenyl)pentanoic acid] | < 50
CCC(CC(=O)O)c1cnc(N(CC)C2CCOCC2)c(NC(=O)Nc2ccc(C)cc2)c1 (racemic) [Example 1377, (+/−)-3-(6-(Ethyl(tetrahydro-2H-pyran-4-yl)amino)-5-(3-(p-tolyl)ureido)pyridin-3-yl)pentanoic acid] | < 50
COCC(CC(=O)O)c1cc(F)c(N(CC(C)C)CC(C)C)c(Nc2ccc3nc(C)sc3c2)c1 (single isomer, unassigned) [Example 925, 3-(4-(diisobutylamino)-3-fluoro-5-((2-methylbenzo [d]thiazol-6-yl)amino)phenyl)-4-methoxybutanoic acid] | < 50
COCC(CC(=O)O)c1ccc(N(C)C2CCOCC2)c(Nc2ccc(C#N)cn2)c1 (single isomer, unassigned) [Example 881, 3-(3-((5-cyanopyridin-2-yl)amino)-4-(methyl (tetrahydro-2H-pyran-4-yl)amino)phenyl)-4-methoxybutanoic acid] | > 50
CC(CC(=O)O)c1ccc(N(CC(C)(C)O)C2CCCCC2)c(Nc2ccc3c(c2)OC(F)(F)O3)c1 (single isomer, unassigned) [Example 49, 3-(4-(cyclohexyl(2-hydroxy-2-methylpropyl)amino)-3-((2,2-difluorobenzo[d][1,3]dioxol-5-yl)amino)phenyl)butanoic acid] | < 50
CCC1COCCN1c1ccc([C@H](COC)CC(=O)O)cc1Nc1ccc(C#N)cc1 (single isomer, unassigned) [Example 1287] | > 50
CCN(c1ccc([C@@H](COC)CC(=O)O)cc1Nc1ccc(C#N)c(OCC(F)(F)F)c1)C1CCOCC1 (single isomer, unassigned) [Example 372] | < 50
CCCOc1ncc(Nc2cc(C(C)CC(=O)O)ccc2N(CC)C2CCOCC2)cn1 (single isomer, unassigned) [Example 621, 3-(4-(ethyl(tetrahydro-2H-pyran-4-yl)amino)-3-((2-propoxypyrimidin-5-yl)amino)phenyl)butanoic acid] | < 50
CCN(c1c(F)cc(C(COC)CC(=O)O)cc1NC(=O)Nc1ccc(Cl)cc1F)C1CCOCC1 (single isomer, unassigned) [Example 919, 3-(3-(3-(4-Chloro-2-fluorophenyl)ureido)-4-(ethyl(tetrahydro-2H-pyran-4-yl)amino)-5-fluorophenyl)-4-methoxybutanoic acid] | > 50
CCOc1ncc(Nc2cc(C(C)(C)CC(=O)O)ccc2N(CCOC)C2CCOCC2)cn1 [Example 17, 3-(3-((2-ethoxypyrimidin-5-yl)amino)-4-((2-methoxyethyl)(tetrahydro-2H-pyran-4-yl)amino)phenyl)-3-methylbutanoic acid] | > 50
CCOc1ccc(Nc2cc([C@@H](CC)CC(=O)O)ccc2N(CC)C2CCOCC2)nn1 (single isomer, unassigned) [Example 467] | < 50
CCCN(c1ccc(C(C)(C)CC(=O)O)cc1Nc1cnc(OCC)nc1)C1CCS(=O)(=O)CC1 [Example 188, 3-(4-((1,1-dioxidotetrahydro-2H-thiopyran-4-yl)(propyl)amino)-3-((2-ethoxypyrimidin-5-yl)amino)phenyl)-3-methylbutanoic acid] | > 50
COCCN(c1ccc(C(C)(C)CC(=O)O)cc1NC(=O)Nc1ccc(Cl)cc1F)C1CCOCC1 [Example 20, 3-(3-(3-(4-chloro-2-fluorophenyl)ureido)-4-((2-methoxyethyl)(tetrahydro-2H-pyran-4-yl)amino)phenyl)-3-methylbutanoic acid] | < 50
CCC(CC(=O)O)c1ccc(N(CC)C2CCN(Cc3ccccc3)CC2)c(Nc2ccc(C#N)cc2)c1 (single isomer, unassigned) [Example 940, 3-(4-((1-benzyl-piperidin-4-yl)(ethyl)amino)-3-((4-cyano-phenyl)amino)phenyl) pentanoic acid] | < 5
CCOc1cc(Nc2cc([C@@H](COC)CC(=O)O)ccc2N(CC)C2CCOCC2)ccc1C#N (single isomer, unassigned) [Example 370] | < 50
CCN(c1ccc(C(C)CC(=O)O)cc1Nc1ccc2nc(C)sc2c1)C1CCOCC1 (single isomer, unassigned) [Example 629, 3-(4-(ethyl(tetrahydro-2H-pyran-4-yl)amino)-3-((2-methylbenzo[d]thiazol-6-yl)amino)phenyl)butanoic acid] | < 50
CCC(CC(=O)O)c1ccc(N(CCOC)C2CCOCC2)c(Nc2cnc(OC)nc2)c1 (single isomer, unassigned) [Example 1259, 3-(4-((2-methoxyethyl)(tetrahydro-2H-pyran-4-yl)amino)-3-((2-methoxypyrimidin-5-yl)amino)phenyl)pentanoic acid] | < 50
CCN(c1ccc([C@@H](COC)CC(=O)O)cc1Nc1cc(C)c(C#N)cn1)C1CCOCC1 (single isomer, unassigned) [Example 384] | > 50
CCN(c1ccc([C@@H](COC)CC(=O)O)cc1Nc1ccc(C#N)c(C)c1)C1CCOCC1 (single isomer, unassigned) [Example 354] | < 50
CCOc1ncc(Nc2cc([C@H](CC)CNS(=O)(=O)C(F)(F)F)ccc2N(CC)C2CCOCC2)cn1 [Example 1329, (S)-N-(2-(3-((2-ethoxypyrimidin-5-yl)amino)-4-(ethyl(tetrahydro-2H-pyran-4-yl)amino)phenyl)butyl)-1,1,1-trifluoromethanesulfonamide] | < 5
COCC(CC(=O)O)c1ccc(N(C)C2CCOCC2)c(Nc2ccc(C#N)cc2F)c1 (single isomer, unassigned) [Example 876, 3-(3-((4-cyano-2-fluorophenyl)amino)-4-(methyl(tetrahydro-2H-pyran-4-yl)amino)phenyl)-4-methoxybutanoic acid] | < 50
CCOc1ncc(Nc2cc(C3(CC(=O)O)CCOCC3)ccc2N(CC)C2CCOCC2)cn1 [Example 153, 2-(4-(3-((2-Ethoxypyrimidin-5-yl)amino)-4-(ethyl(tetrahydro-2H-pyran-4-yl)amino)phenyl)tetrahydro-2H-pyran-4-yl)acetic acid] | > 50
CC(CC(=O)O)c1ccc(N2C[C@@H](C)O[C@@H](C)C2)c(NC(=O)Nc2ccc(Cl)cc2F)c1 (single isomer, unassigned) [Example 749 Enantiomer 1] | > 50
CCN(c1ccc(C(CC(=O)O)C2CC2)cc1Nc1ccc(Cl)cc1)C1CCS(=O)(=O)CC1 (single isomer, unassigned) [Example 339 Enantiomer 1, 3-(3-((4-Chlorophenyl)amino)-4-((1,1-dioxidotetrahydro-2H-thiopyran-4-yl)(ethyl)amino)phenyl)-3-cyclopropylpropanoic acid] | < 5

Next, values leading:

IC50 [nM] | Compound
< 5 | COCC(CC(=O)O)c1ccc(N2CCOC[C@H]2C(C)C)c(Nc2ccc(Cl)cc2)c1 (single isomer, unassigned) [Example 913]
< 5 | CCC(CC(=O)O)c1ccc(N2CCOC[C@H]2C(C)C)c(Nc2ccc(Cl)cc2)c1 (single isomer, unassigned) [Example 888]
< 5 | CCCN(c1ccc([C@H](COC)CC(=O)O)cc1Nc1ccc(C#N)cc1)C1CCOCC1 (single isomer, unassigned) [Example 568]
< 5 | CCN(c1ccc(C(C)CC(=O)O)cc1Nc1ccc(C#N)cc1)C1CCOCC1 (single isomer, unassigned) [Example 625, 3-(3-((4-cyanophenyl)amino)-4-(ethyl(tetrahydro-2H-pyran-4-yl)amino)phenyl)butanoic acid]
< 5 | CCN(c1ccc(C(C)(C)CC(=O)O)cc1Nc1ccc2c(c1)OC(F)(F)O2)C1CCS(=O)(=O)CC1 [Example 179, 3-(3-((2,2-difluorobenzo[d][1,3]dioxol-5-yl)amino)-4-((1,1-dioxidotetrahydro-2H-thiopyran-4-yl)(ethyl)amino)phenyl)-3-methylbutanoic acid]
< 5 | CCCN(c1ccc([C@H](COC)CC(=O)O)cc1Nc1ccc(Cl)cc1)C1CCOCC1 (single isomer, unassigned) [Example 574]
< 5 | CCOc1ccc(Nc2cc([C@H](CC)CC(=O)O)ccc2N(CC)C2CCOCC2)nn1 (single isomer, unassigned) [Example 510]
< 5 | CCCN(c1ccc([C@H](CC)CC(=O)O)cc1Nc1ccc(C#N)cc1)C1CCOCC1 (single isomer, unassigned) [Example 547]
< 5 | CCN(c1ccc([C@@H](COC)CC(=O)O)cc1Nc1ccc(C#N)cc1)C1CCOCC1 (stereo in doubt) [compound 349, 3-(3-((4-Cyanophenyl)amino)-4-(ethyl(tetrahydro-2H-pyran-4-yl)amino)phenyl)-4-methoxybutanoic acid]
< 5 | CCCN(c1ccc([C@H](CC)CC(=O)O)cc1NC(=O)Nc1ccc(Cl)cc1F)C1CCOCC1 (single isomer, unassigned) [Example 555]
< 5 | CCC(CC(=O)O)c1ccc(N(C)C2CCOCC2)c(Nc2ccc(Cl)cc2)c1 (single isomer, unassigned) [Example 867, 3-(3-((4-Chlorophenyl)amino)-4-(methyl(tetrahydro-2H-pyran-4-yl)amino)phenyl)pentanoic acid]
< 5 | CCC(CC(=O)O)c1cc(Nc2ccc(C#N)cn2)c(N(CC)C2CCOCC2)cc1F (single isomer, unassigned) [Example 862, 3-(5-((5-cyanopyridin-2-yl)amino)-4-(ethyl (tetrahydro-2H-pyran-4-yl)amino)-2-fluorophenyl) pentanoic acid]
< 5 | CCC(CC(=O)O)c1ccc(N(C)C2CCOCC2)c(Nc2ccc(C#N)cc2)c1 (single isomer, unassigned) [Example 870, 3-(3-((4-Cyanophenyl)amino)-4-(methyl(tetrahydro-2H-pyran-4-yl)amino)phenyl)pentanoic acid]
